Source: patent US20250011307A1, “CRYSTALLINE FORMS OF BIARYL YAP/TAZ-TEAD PROTEIN-PROTEIN INTERACTION INHIBITORS” (Novartis AG, priority 2021, published 2025)

Assays:
Type in all cases: physicochemical
[1] = Xenon light stress test of bulk (HPLC degradation products, color, XRPD); parameters: key to CL color: A: No change; B: Slight discoloration; C: Medium discoloration; D: Strong discoloration; conditions: Compound A forms, Xenon light (1200 kLuxh, 25° C.)
Description: X-ray powder diffraction (XRPD) patterns were obtained using a Bruker Advance D8 in reflection geometry. Powders were analyzed using a zero background Si flat sample holder. The radiation used was Cu Kα (A=1.5418 Å). Patterns were measured between 2° and 40° 2theta. • Sample amount: 5-10 mg • Sample holder: zero background Si flat sample holder
X-ray powder diffraction (XRPD) patterns were obtained using a Bruker Advance D8 in reflection geometry. Powders were analyzed using a zero background Si flat sample holder. The radiation was Cu Kα (λ=1.5418 Å). Patterns were measured between 2° and 40° 2theta. • Sample amount: 5-10 mg • Sample holder: zero background Si flat sample holder

[2] = Solubility after equilibration at 25° C. for 24 h, with final pH and XRPD of solid residues; conditions: Compound A forms
[3] = Hygroscopicity (loss on drying by TGA and XRPD, as is and after storage at 92% / 80% RH); conditions: Compound A forms; for Loss on drying by TGA [%]: TGA temperature per cell: Modification A 110° C., amorphous 119° C., 4-hydroxybenzoate 200° C.
[4] = Solid state bulk stability stress test (HPLC degradation products, color, XRPD); parameters: key to CL color: A: No change; B: Slight discoloration; C: Medium discoloration; D: Strong discoloration; conditions: Compound A forms
[5] = Excipient compatibility stress test (HPLC degradation products, color); parameters: key to CL color: A: No change; B: Slight discoloration; C: Medium discoloration; D: Strong discoloration; conditions: Compound A forms
[6] = FaSSIF V2 pH 6.5, target concentration 20 mg/10 mL
[7] = FeSSIF V2 pH 5.8, target concentration 20 mg/10 mL
[8] = SGF pH 2.0, target concentration 20 mg/10 mL
[9] = Water, target concentration 20 mg/10 mL
[10] = pH 1.2, 100 mM HCl, target concentration 20 mg/10 mL
[11] = pH 3.0, 50 mM citrate buffer, target concentration 20 mg/10 mL
[12] = pH 4.7, 50 mM acetate buffer, target concentration 20 mg/10 mL
[13] = pH 6.8, 50 mM phosphate buffer with 50 mM Na taurocholate
[14] = pH 6.8, 50 mM phosphate buffer with 50 mM Na taurocholate, target concentration 20 mg/10 mL
[15] = pH 6.8, 50 mM phosphate buffer, target concentration 20 mg/10 mL
[16] = Hygroscopicity, before RH storage
[17] = 2 weeks 50° C./75% RH, 1% in mixture 1
[18] = 2 weeks 50° C./75% RH, 1% in mixture 2
[19] = 2 weeks 50° C./75% RH, 1% in mixture 3
[20] = 2 weeks 50° C./75% RH, HGC capsule powder
[21] = 2 weeks 50° C./75% RH, HPMC capsule powder
[22] = 2 weeks 70° C./11% RH, 1% in mixture 1
[23] = 2 weeks 70° C./11% RH, 1% in mixture 2
[24] = 2 weeks 70° C./11% RH, 1% in mixture 3
[25] = 2 weeks 70° C./11% RH, HGC capsule powder
[26] = 2 weeks 70° C./11% RH, HPMC capsule powder
[27] = 2 weeks 70° C./75% RH, 1% in mixture 1
[28] = 2 weeks 70° C./75% RH, 1% in mixture 2
[29] = 2 weeks 70° C./75% RH, 1% in mixture 3
[30] = 2 weeks 70° C./75% RH, HPC capsule powder
[31] = 2 weeks 70° C./75% RH, HPMC capsule powder

## CNC(=O)c1cnc(OCCO)c(F)c1-c1c(Cl)c(F)cc2c1C[C@](c1ccccc1)([C@@H]1CCCN1)O2 [Compound A 4-hydroxybenzoate, 4-((2S,4S)-5-Chloro-6-fluoro-2-phenyl-2-((S)-pyrrolidin-2-yl)-2,3-dihydrobenzofuran-4-yl)-5-fluoro-6-(2-hydroxyethoxy)-N-methylnicotinamide]
[1]; amber vial
  Bulk amber vial (XRPD): No change
  CL color: A
  DP[%] degradation products, Bulk amber vial (HPLC): 0.2%
[1]; clear vial
  Bulk clear vial (XPRD): No change
  CL color: A
  DP[%] degradation products, Bulk clear vial (HPLC): 0.2%
[2]; FaSSIF V2 pH 6.5
  final pH: (6.55)
[2]; [6]
  Sol. (solubility): >2, mg/mL
[2]; FeSSIF V2 pH 5.8
  final pH: (5.86)
[2]; [7]
  Sol. (solubility): >2, mg/mL
[2]; SGF pH 2.0
  final pH: (2.36)
[2]; [8]
  Sol. (solubility): >2, mg/mL
[2]; Water
  final pH: (7.66)
[2]; [9]
  Sol. (solubility): >2, mg/mL
[2]; pH 1.2, 100 mM HCl
  final pH: (1.18)
[2]; [10]
  Sol. (solubility): >2, mg/mL
[2]; pH 3.0, 50 mM citrate buffer
  final pH: (3.12)
[2]; [11]
  Sol. (solubility): >2, mg/mL
[2]; pH 4.7, 50 mM acetate buffer
  final pH: (4.78)
[2]; [12]
  Sol. (solubility): >2, mg/mL
[2]; pH 6.8, 50 mM phosphate buffer
  final pH: (6.75)
[2]; [13]
  final pH: (6.72)
[2]; [14]
  Sol. (solubility): >2, mg/mL
[2]; [15]
  Sol. (solubility): >2, mg/mL
[3]; After 1 day at 80% RH
  XRPD: No change
  Loss on drying by TGA [%]: 0.6% (200° C.)
[3]; After 1 day at 92% RH
  XRPD: No change
  Loss on drying by TGA [%]: 0.7% (200° C.)
[3]; [16]
  Loss on drying by TGA [%]: 0.5% (200° C.)
[4]; 2 weeks 50° C./75% RH
  Bulk (XRPD): No change
  CL color: A
  DP[%] degradation products, Bulk (HPLC): 0.2%
[4]; 2 weeks 80° C., 11% RH
  Bulk (XRPD): No change
  CL color: A
  DP[%] degradation products, Bulk (HPLC): 0.2%
[4]; 2 weeks 80° C./75% RH
  Bulk (XRPD): No change
  CL color: A
  DP[%] degradation products, Bulk (HPLC): 1.5%
[5]; [17]
  CL color: A
  DP[%] degradation products: 0.3%
[5]; [18]
  CL color: A
  DP[%] degradation products: 0.2%
[5]; [19]
  CL color: A
  DP[%] degradation products: 0.2%
[5]; [20]
  CL color: A
  DP[%] degradation products: 0.3%
[5]; [21]
  CL color: A
  DP[%] degradation products: 0.6%
[5]; [22]
  CL color: A
  DP[%] degradation products: 0.4%
[5]; [23]
  CL color: A
  DP[%] degradation products: 0.1%
[5]; [24]
  CL color: A
  DP[%] degradation products: 0.2%
[5]; [25]
  CL color: A
  DP[%] degradation products: 0.3%
[5]; [26]
  CL color: A
  DP[%] degradation products: 0.6%
[5]; [27]
  CL color: A
  DP[%] degradation products: 3.6%
[5]; [28]
  CL color: A
  DP[%] degradation products: 2.3%
[5]; [29]
  CL color: A
  DP[%] degradation products: 1.5%
[5]; [30]
  CL color: A
  DP[%] degradation products: 1.3%
[5]; [31]
  CL color: A
  DP[%] degradation products: 3.1%

## CNC(=O)c1cnc(OCCO)c(F)c1-c1c(Cl)c(F)cc2c1C[C@](c1ccccc1)([C@@H]1CCCN1)O2 [Compound A Free form amorphous, 4-((2S,4S)-5-Chloro-6-fluoro-2-phenyl-2-((S)-pyrrolidin-2-yl)-2,3-dihydrobenzofuran-4-yl)-5-fluoro-6-(2-hydroxyethoxy)-N-methylnicotinamide]
[1]; amber vial
  Bulk amber vial (XRPD): No change
  CL color: A
  DP[%] degradation products, Bulk amber vial (HPLC): 1.0%
[1]; clear vial
  Bulk clear vial (XPRD): No change
  CL color: B
  DP[%] degradation products, Bulk clear vial (HPLC): 7.4%
[2]; FaSSIF V2 pH 6.5
  final pH: (7.98)
[2]; [6]
  Sol. (solubility): >2, mg/mL
[2]; FeSSIF V2 pH 5.8
  final pH: (5.93)
[2]; [7]
  Sol. (solubility): >2 mg/mL
[2]; SGF pH 2.0
  final pH: (2.37)
[2]; [8]
  Sol. (solubility): >2, mg/mL
[2]; Water
  final pH: (9.26)
[2]; [9]
  Sol. (solubility): 0.28, mg/mL
[2]; pH 1.2, 100 mM HCl
  final pH: (1.19)
[2]; [10]
  Sol. (solubility): >2 mg/mL
[2]; pH 3.0, 50 mM citrate buffer
  final pH: (3.13)
[2]; [11]
  Sol. (solubility): >2, mg/mL
[2]; pH 4.7, 50 mM acetate buffer
  final pH: (4.89)
[2]; [12]
  Sol. (solubility): >2, mg/mL
[2]; pH 6.8, 50 mM phosphate buffer
  final pH: (6.97)
[2]; [13]
  final pH: (6.87)
[2]; [14]
  Sol. (solubility): >2, mg/mL
[2]; [15]
  Sol. (solubility): >2, mg/mL
[3]; After 1 day at 80% RH
  XRPD: No change
  Loss on drying by TGA [%]: 2.0% (119° C.)
[3]; After 1 day at 92% RH
  XRPD: No change
  Loss on drying by TGA [%]: 2.5% (119° C.)
[3]; [16]
  Loss on drying by TGA [%]: 1.1% (119° C.)
[4]; 2 weeks 50° C./75% RH
  Bulk (XRPD): No change
  CL color: A
  DP[%] degradation products, Bulk (HPLC): 2.1%
[4]; 2 weeks 80° C., 11% RH
  Bulk (XRPD): No change
  CL color: A
  DP[%] degradation products, Bulk (HPLC): 5.5%
[4]; 2 weeks 80° C./75% RH
  Bulk (XRPD): gel
  DP[%] degradation products, Bulk (HPLC): 15.3%
